Read-outs that look alike come from different tables or passages of the source.
Assays:
Femoral artery = test: Relaxation of vasoconstriction induced by supernatant of aggregated platelets, femoral artery; set-up: species or system male Japanese white rabbit; conditions: Oryctolagus cuniculus, aggregated platelet supernatant 1/100-fold dilution, read-out: EC50 (50% relaxation)
Description: (§1) After a male Japanese white rabbit was anesthetized by intramuscular administration of ketamine (product of sankyo Company, Limited) at 50 mg/kg, a polyethylene-made catheter ["PE240" (trade name), manufactured by Becton Dickinson Co., Ltd.] was inserted into a carotid artery, and the blood was collected with a tube containing a 1/10 volume of a 3.8% aqueous solution of sodium citrate [NACALAI TESQUE, Inc.]. The blood so collected was centrifuged at 90 g (900 rpm) for 15 minutes ["05PR-22" (trade name), manufactured by Hitachi Koki Co., Ltd.] and platelet-rich plasma (PRP) was collected from the upper layer.
(§2) After addition of an equiamount of buffer A (25 mM Tris-HCl, 130 mM NaCl, 1.5 mM EDTA, pH 7.4), to PRP, the mixture was centrifuged at 4° C. and 1,500 g (3,000 rpm) for 10 minutes. The thus-obtained platelet pellet was suspended again in buffer A, followed by centrifugation at 4° C. and 1,500 g (3,000 rpm) for 5 minutes. The resulting platelet pellet was suspended again in buffer B (25 mM Tris-HCl, 130 mM NaCl, 0.3 mM EDTA, pH 7.4), followed by centrifugation under the same conditions. […]
(§3) After the vascular strip preparations had been left over for about 1 hour and their resting tensions had been confirmed to become stable, the tonicities of the vascular strip preparations were measured using the isometric transducers. […]

Pulmonary artery = test: Relaxation of vasoconstriction induced by supernatant of aggregated platelets, pulmonary artery; set-up: species or system male Japanese white rabbit; conditions: Oryctolagus cuniculus, aggregated platelet supernatant 1/100-fold dilution, read-out: EC50 (50% relaxation)
Description: as §1, §2, §3

[1] = test system: platelet aggregation (platelet-rich plasma); test: Inhibitory Effect on Canine Platelet Aggregation (ex vivo after oral administration, collagen + serotonin); assay type: in vivo, canine (male beagles); conditions: Canis lupus familiaris, 0.1 mg/kg oral, collagen + serotonin 1 μM, read-out: Aggregation inhibition rate
Description: Four male beagles which ranged in age from 17 to 19 months were used after fasted overnight. A suspension of (-)-(S)-5-[3-[4-(4-fluorophenyl)piperazin-1-yl]propyl]-8-hydroxy-1-methyl- 1,4,5,6,7,8-hexahydropyrrolo[3,2-c]azepin-4-one (test compound a) in a 0.5% aqueous solution of carboxymethylcellulose sodium salt was orally administered at 0.1 mg/kg. Before the administration of the test compound and after elapsed times of 1, 2, 4 and 6 hours from the administration, blood samples were collected from the foreleg veins. The blood was sampled using syringes containing a 1/10 volume of a 3.8% aqueous solution of sodium citrate ["cytorate for ESR Measurement" (trade name), product of The Green Cross Corp.].
Each collected blood sample was centrifuged at room temperature and 190 g for 7 minutes, and the upper layer, platelet-rich plasma (PRP), was collected. The remaining blood was centrifuged at 1,500 g for 10 minutes, and the upper layer, platelet-poor plasma (PPP), was collected. Using collagen [final concentration: 0.03 to 5 μg/ml, "Collagenreagent Form" (trade name), product of Moriya Sangyo Co., Ltd.] and serotonin (final concentration: 1 μM, serotonin hydrochloride, product of Sigma Chemical Co.) as a platelet proaggrecant, the platelet aggregating ability was measured by the Born turbidimetry. Specifically, using PPP as a control, a solution of calcium chloride (product of NACALAI TESQUE, INC.) was added to PRP at 37° C. to give a final concentration of 1 mM. After 2 minutes, the proaggrecant was added. Variations in transmittance, which took place in the course of subsequent 10 minutes, were measured using a platelet aggregometer measuring instrument ["PAM-8C" (trade name), manufactured by MEBANCS, INC.], and its maximum value was recorded as a platelet aggregation rate (%). […] As an aggregation inhibition rate, the proportion of an aggregation rate after the administration of the test compound relative to an aggregation rate before the administration of the test compound was shown in percentage.

Mesenteric artery = test: Relaxation of vasoconstriction induced by supernatant of aggregated platelets, mesenteric artery; set-up: species or system male Japanese white rabbit; conditions: Oryctolagus cuniculus, aggregated platelet supernatant 1/100-fold dilution, read-out: EC50 (50% relaxation)
Description: as §1, §2, §3

[2] = test system: gastrocnemius-plantaris-sole muscle (GPS muscle); test: Test in Rat Intermittent Claudication Model (muscle contraction force after collagen infusion); assay type: in vivo, male Wistar rats; conditions: 20 minutes after collagen infusion
Description: Based on the methods proposed by Angersbach, D. et al. in Int. J. Microcirc. Clin. Exp., 7, 15-30 (1988) and by Loots, W. et al. in Am. J. Physiol. 265, H158-H164 (1993), an intermittent claudication model was designed as will be described next. Firstly, male Wistar rats which ranged in age from 9 to 10 weeks were ligated at right femoral arteries under anesthesia with pentobanbital [40 mg/kg, intraperitoneal administration, "Nembutal Injection" (trademark), product of Dainabot Co., Ltd.] and were fed for 1 week. After fasted overnight, a suspension of (-)-(S)-5-[3-[4-(4-fluorophenyl)piperazin-1-yl]propyl]-8-hydroxy-1-methyl- 1,4,5,6,7,8-hexahydropyrrolo[3,2-c]azepin-4-one (test compound a) in a 0.5% aqueous solution of carboxymethylcellulose sodium salt was orally administered at 1, 3 and 10 mg/kg, respectively.
After an elapsed time of 60 minutes since the administration, each rat was subjected to anesthetization with urethan ([…], intraperitoneal administration, product of Sigma Chemical Co.) and α-chloralose ([…], intraperitoneal administration, product of NACALAI TESQUE, INC.). To administer collagen into artery, a cannula ["SP-31" (trade name), manufactured by Natsume Seisakusho Co., Ltd.] was inserted through the left carotid artery such that its leading end was located on a proximal side of the branching point of the iliac artery. Thereafter, the rat was held in a prone position, and the skin of the right hind leg was flayed to expose the gastrocnemius-plantaris-sole muscle (GPS muscle). The Achilles tendon was bound and cut off, connected to an isometric tension meter ["CBE-1 10 kg" (trade name), manufactured by MINEBEA Co., Ltd.], and then held in place with a resting tension of about 100 g. […] Contraction force produced upon electric stimulation was recorded [amplifier: "AP-620G" (trade name), manufactured by Nihon Kohden Corporation, recorder: "WT-645G" (trade name), manufactured by Nihon Kohden Corporation]. […]

Renal artery = test: Relaxation of vasoconstriction induced by supernatant of aggregated platelets, renal artery; set-up: species or system male Japanese white rabbit; conditions: Oryctolagus cuniculus, aggregated platelet supernatant 1/100-fold dilution, read-out: EC50 (50% relaxation)
Description: as §1, §2, §3

[3] = test system: pulmonary thromboembolic death; test: Inhibitory Action in Mouse Pulmonary Thromboembolic Death; assay type: in vivo, male ddY mice; conditions: 3 mg/kg oral; within 10 minutes after injection of collagen 1 mg/kg and serotonin hydrochloride 5 mg/kg
Description: Male ddY mice which ranged in age from 4 to 5 weeks were used after fasted overnight. Suspensions of Compounds a-c, which will be specified subsequently herein, in a 0.5% aqueous solution of carboxymethylcellulose sodium were orally administered at 3 mg/kg.
After 1 hour, collagen [1 mg/kg, "Collagenreagent Form" (trade name), product of Moriya Sangyo Co., Ltd.] and serotonin hydrochloride (5 mg/kg, product of Sigma Chemical Co.) were injected through the candal veins.
An investigation was made for mortality rates of mice within 10 minutes after the injection.

Basilar artery = test: Relaxation of vasoconstriction induced by supernatant of aggregated platelets, basilar artery; set-up: species or system male Japanese white rabbit; conditions: Oryctolagus cuniculus, aggregated platelet supernatant 1/100-fold dilution, read-out: EC50 (50% relaxation)
Description: as §1, §2, §3

Coronary artery = test: Relaxation of vasoconstriction induced by supernatant of aggregated platelets, coronary artery; set-up: species or system male Japanese white rabbit; conditions: Oryctolagus cuniculus, aggregated platelet supernatant 1/100-fold dilution, read-out: EC50 (50% relaxation)
Description: as §1, §2, §3

Structure (SMILES) | EC50 (Femoral artery) [µM] | EC50 (Pulmonary artery) [µM] | inhibition at 0.1 mg/kg ([1]; 1 hr after administration) [%] | inhibition at 0.1 mg/kg ([1]; 2 hr after administration) [%] | inhibition at 0.1 mg/kg ([1]; 4 hr after administration) [%] | inhibition at 0.1 mg/kg ([1]; 6 hr after administration) [%] | EC50 (Mesenteric artery) [µM] | Contraction force ([2]; 1 mg/kg oral) [g] | Contraction force ([2]; 3 mg/kg oral) [g] | Contraction force ([2]; 10 mg/kg oral) [g] | EC50 (Renal artery) [µM] | Mortality rate [3] [%] | EC50 (Basilar artery) [µM] | EC50 (Coronary artery) [µM]
Cn1ccc2c1[C@@H](O)CCN(CCCN1CCN(c3ccc(F)cc3)CC1)C2=O [Compound a, (-)-(S)-5-[3-[4-(4-fluorophenyl)piperazin-1-yl]propyl]-8-hydroxy-1-methyl-1,4,5,6,7,8-hexahydropyrrolo[3,2-c]azepin-4-one] | 0.328 ± 0.112 | 0.014 ± 0.003 | 99.7 ± 0.3 | 99.8 ± 0.2 | 99.3 ± 0.7 | 72.5 ± 16.1 | 0.032 ± 0.022 | 93 ± 17 | 116 ± 15 | 122 ± 10 | 0.246 ± 0.079 | 10 | 0.138 ± 0.055 | 0.254 ± 0.054
Cc1cn(C)c2c1C(=O)N(CCCN1CCN(c3ccc(F)cc3)CC1)CCC2O (stereo not shown) [Compound c, 5-[3-[4-(4-fluorophenyl)piperazin-1-yl]propyl]-8-hydroxy-1,3-dimethyl-1,4,5,6,7,8-hexahydropyrrolo[3,2-c]azepin-4-one] |  |  |  |  |  |  |  |  |  |  |  | 30 |  | 
Cn1ccc2c1C(O)CCN(CCCN1CCN(c3ccc(F)cc3)CC1)C2=O (racemic) [Compound b, (±)-5-[3-[4-(4-fluorophenyl)piperazin-1-yl]propyl]-8-hydroxy-1-methyl-1,4,5,6,7,8-hexahydropyrrolo[3,2-c]azepin-4-one] |  |  |  |  |  |  |  |  |  |  |  | 25 |  | 

Reference: patent US6288056A, “Intermittent claudication therapeutic drugs comprising pyrroloazepines” (Suntory Limited, priority 1999, dated 2001)
